Measurements published in publication PMC9112005, “Sas20 is a highly flexible starch-binding protein in the Ruminococcus bromii cell-surface amylosome” (The Journal of Biological Chemistry, 2022).
Several values for one entry are separate records, joined by “and”; a condition that tells them apart may be missing. Equal values may be shown once. Entries after “also recorded” stand apart in the source; their conditions may differ. Read-outs that look alike come from different tables or passages of the source.

Columns and labels:
Sas20d1 = Sas20d1 (Ruminococcus bromii, UniProt Z9RYL2BLZ4); assay: ITC binding to Sas20d1; conditions: average of three replicates; for Kd / Kd (μM): 25 °C, 50 mM Hepes pH 7.0, one-site binding model, polysaccharides: based on concentration of binding sites; for N (binding sites): one-site binding model
Sequence of Sas20d1 (Z9RYL2BLZ4 14-251 limits assumed): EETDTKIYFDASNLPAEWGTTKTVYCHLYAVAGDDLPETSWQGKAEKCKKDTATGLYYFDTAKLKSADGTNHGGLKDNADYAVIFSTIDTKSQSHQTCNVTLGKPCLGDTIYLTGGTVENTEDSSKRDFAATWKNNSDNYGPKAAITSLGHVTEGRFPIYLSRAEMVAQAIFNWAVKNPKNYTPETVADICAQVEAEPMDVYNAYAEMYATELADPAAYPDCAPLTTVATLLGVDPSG
Protocol: (§1) ITC measurements were carried out using a TA Instruments Nano ITC. Proteins were dialyzed into 50 mM Hepes (pH = 7.0), and oligosaccharides were prepared using the dialysis buffer. […] For polysaccharide titrations, the concentration of ligand was adjusted to fit a one-site binding model with n = 1; this sets the concentration of the ligand to the concentration of binding sites for the protein within the polysaccharide, as previously described ([77]). The solution was stirred at 250 rpm, and the resulting heat of reaction was measured. Data were analyzed using the TA Instruments NanoAnalyze software package fitting to a one-site binding model.

Sas20d2 W375A = assay: ITC binding to Sas20d2 W375A mutant; set-up: species or system Ruminococcus bromii
Sas20d1 Y60A = assay: ITC binding to Sas20d1 Y60A mutant; set-up: species or system Ruminococcus bromii; conditions: 25 °C, one-site binding model, average of three replicates
Sca5X25-2 = Sca5X25-2 (Ruminococcus bromii, UniProt Z9P1N1M2Z2); assay: ITC binding to Sca5X25-2
Sequence of Sca5X25-2 (Z9P1N1M2Z2 14-256 limits assumed): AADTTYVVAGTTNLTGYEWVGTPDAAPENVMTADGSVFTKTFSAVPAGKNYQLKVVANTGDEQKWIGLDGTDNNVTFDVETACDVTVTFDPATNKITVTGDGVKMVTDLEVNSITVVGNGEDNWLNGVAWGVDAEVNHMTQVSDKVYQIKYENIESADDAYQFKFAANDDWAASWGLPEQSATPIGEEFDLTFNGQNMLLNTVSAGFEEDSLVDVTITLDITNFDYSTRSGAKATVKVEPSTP
Protocol: as §1

Sca5X25-2a = assay: ITC binding to Sca5X25-2a; conditions: 25 °C, one-site binding model, average of three replicates
Sequence of Sca5X25-2a (Z9P1N1M2Z2 13-117 limits assumed): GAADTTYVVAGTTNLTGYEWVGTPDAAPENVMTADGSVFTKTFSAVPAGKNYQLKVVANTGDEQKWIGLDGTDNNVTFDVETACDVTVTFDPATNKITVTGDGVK
Protocol: as §1

Sas20d1 W72A = assay: ITC binding to Sas20d1 W72A mutant; set-up: species or system Ruminococcus bromii; conditions: 25 °C, one-site binding model, average of three replicates
Sas20d2 W481A = assay: ITC binding to Sas20d2 W481A mutant; set-up: species or system Ruminococcus bromii; conditions: 25 °C, one-site binding model, average of three replicates
Sca5X25-2b = assay: ITC binding to Sca5X25-2b; conditions: 25 °C, one-site binding model, average of three replicates
Sequence of Sca5X25-2b (Z9P1N1M2Z2 118-256 limits assumed): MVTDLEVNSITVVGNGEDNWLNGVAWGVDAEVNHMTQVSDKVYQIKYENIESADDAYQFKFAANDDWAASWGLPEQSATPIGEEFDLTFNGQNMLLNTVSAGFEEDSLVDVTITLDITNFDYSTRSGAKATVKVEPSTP
Protocol: ITC measurements were carried out using a TA Instruments Nano ITC. Proteins were dialyzed into 50 mM Hepes (pH = 7.0), and oligosaccharides were prepared using the dialysis buffer. […] The solution was stirred at 250 rpm, and the resulting heat of reaction was measured. Data were analyzed using the TA Instruments NanoAnalyze software package fitting to a one-site binding model.

Sas20d2 W329A = assay: ITC binding to Sas20d2 W329A mutant; set-up: species or system Ruminococcus bromii
Sas20d2 W440A = assay: ITC binding to Sas20d2 W440A mutant; set-up: species or system Ruminococcus bromii
Sas20d1tr = Sas20d1tr (Ruminococcus bromii, UniProt Z9RYL2BLZ4); assay: ITC binding to truncated Sas20d1 lacking C-terminal helices
Sequence of Sas20d1tr (Z9RYL2BLZ4 14-173 limits assumed): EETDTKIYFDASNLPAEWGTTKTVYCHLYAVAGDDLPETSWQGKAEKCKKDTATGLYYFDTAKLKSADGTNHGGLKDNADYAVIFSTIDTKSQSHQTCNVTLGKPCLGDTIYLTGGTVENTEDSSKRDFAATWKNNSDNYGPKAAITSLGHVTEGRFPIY
Protocol: as §1

Sas20d2 = Sas20d2 (Ruminococcus bromii, UniProt A0A2N0UW79); assay: ITC binding to Sas20d2; conditions: for N (binding sites): one-site binding model
Sequence of Sas20d2 (A0A2N0UW79 entry or part of it): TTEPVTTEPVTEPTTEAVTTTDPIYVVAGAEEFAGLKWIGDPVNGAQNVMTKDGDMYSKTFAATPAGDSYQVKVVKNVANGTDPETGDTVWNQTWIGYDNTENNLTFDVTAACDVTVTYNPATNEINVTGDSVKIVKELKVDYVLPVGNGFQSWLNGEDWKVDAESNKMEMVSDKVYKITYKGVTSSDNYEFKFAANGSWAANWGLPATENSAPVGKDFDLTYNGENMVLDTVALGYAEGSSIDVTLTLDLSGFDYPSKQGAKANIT
Protocol: as §1

[1] = 25 °C, one-site binding model, average of three replicates
[2] = Kd (μM), 25 °C, one-site binding model, average of three replicates, asterisk denotes fixed Kd
[3] = 25 °C, 50 mM Hepes pH 7.0, one-site binding model, average of three replicates, polysaccharides: based on concentration of binding sites

Compound: O=[N+]([O-])c1ccc(OC2OC(CO)C(OC3OC(CO)C(OC4OC(CO)C(OC5OC(CO)C(OC6OC(CO)C(OC7OC(CO)C(OC8OC9COC(c%10ccccc%10)OC9C(O)C8O)C(O)C7O)C(O)C6O)C(O)C5O)C(O)C4O)C(O)C3O)C(O)C2O)cc1 (centres unmarked) [B-PNP-M7, benzylidene-blocked para-nitrophenyl maltoheptaoside]
- Kd (Sas20d1): 7.12 ± 1.53 µM
- N (binding sites) (Sas20d1): 1.28 ± 0.29

Compound: OC[C@H]1O[C@H](O[C@H]2[C@H](O)[C@@H](O)[C@@H](O[C@H]3[C@H](O)[C@@H](O)[C@@H](O[C@H]4[C@H](O)[C@@H](O)[C@@H](O[C@H]5[C@H](O)[C@@H](O)[C@@H](O[C@H]6[C@H](O)[C@@H](O)[C@@H](O[C@H]7[C@H](O)[C@@H](O)C(O)O[C@@H]7CO)O[C@@H]6CO)O[C@@H]5CO)O[C@@H]4CO)O[C@@H]3CO)O[C@@H]2CO)[C@H](O)[C@@H](O)[C@@H]1O (some centres unmarked) [Maltoheptaose, maltoheptaose]
- fold increase in the Kd compared with WT Sas20d2 (Sas20d2 W375A): ~100 fold
- Kd (Sas20d2 W375A; [1]): 88.1 ± 36 µM
- Kd (Sas20d1 Y60A): 8.29 ± 0.51 µM
- Kd (μM) (Sas20d1 Y60A): binds
- Kd (Sca5X25-2): 0.21 ± 0.029 µM
- N (binding sites) (Sca5X25-2; ITC, one-site binding model): 0.81 ± 0.09
- Kd (μM) (Sca5X25-2a): failed to bind
- Kd (μM) (Sas20d1 W72A): did not bind
- Kd (μM) (Sas20d2 W481A): eliminated binding
- Kd (μM) (Sca5X25-2b): failed to bind
- fold increase in the Kd compared with WT Sas20d2 (Sas20d2 W329A): ~100 fold
- Kd (Sas20d2 W329A; [1]): 90.8 ± 25.7 µM
- fold increase in the Kd compared with WT Sas20d2 (Sas20d2 W440A): ~100 fold
- Kd (Sas20d2 W440A; [1]): 90 ± 7.72 µM
- Kd (Sas20d1; Kd (μM)): ≤ 20 µM and 1.5 µM and 1.53 µM
- N (binding sites) (Sas20d1): 0.89 ± 0.38
- fold decrease in binding versus full-length Sas20d1 (Sas20d1tr): ~100 fold
- Kd (Sas20d1tr; [2]): 155 ± 63 µM
- N (binding sites) (Sas20d1tr; one-site binding model): 1.45 ± 0.27
- fold lower Kd for maltoheptaose over maltotriose (Sas20d2): ~1500 ×
- N (binding sites) (Sas20d2): 1.15 ± 0.15

Compound: OC[C@H]1O[C@H](O[C@H]2[C@H](O)[C@@H](O)[C@@H](O[C@H]3[C@H](O)[C@@H](O)C(O)O[C@@H]3CO)O[C@@H]2CO)[C@H](O)[C@@H](O)[C@@H]1O (some centres unmarked) [Maltotriose, maltotriose]
- Kd (μM) (Sas20d2 W375A; [1]): loss of binding
- Kd (μM) (Sas20d1 W72A): did not bind
- Kd (μM) (Sas20d2 W481A): eliminated binding
- Kd (μM) (Sas20d2 W329A; [1]): loss of binding
- Kd (μM) (Sas20d2 W440A; [1]): loss of binding
- N (binding sites) (Sas20d2): 1.18 ± 0.05

Compound: O=[N+]([O-])c1ccc(O[C@H]2O[C@H](CO)[C@@H](O[C@H]3O[C@H](CO)[C@@H](O[C@H]4O[C@H](CO)[C@@H](O[C@H]5O[C@H](CO)[C@@H](O[C@H]6O[C@H](CO)[C@@H](OC7OC(CO)C(O)C(O)C7O)[C@H](O)[C@H]6O)[C@H](O)[C@H]5O)[C@H](O)[C@H]4O)[C@H](O)[C@H]3O)[C@H](O)[C@H]2O)cc1 (stereo partly drawn) [PNP-M6, PNP-α-maltohexaose]
- Kd (Sas20d1): 0.87 ± 0.48 µM
- N (binding sites) (Sas20d1): 1.15 ± 0.07

Compound: OC[C@H]1O[C@@H]2O[C@H]3[C@H](O)[C@@H](O)[C@@H](O[C@H]4[C@H](O)[C@@H](O)[C@@H](O[C@H]5[C@H](O)[C@@H](O)[C@@H](O[C@H]6[C@H](O)[C@@H](O)[C@@H](O[C@H]7[C@H](O)[C@@H](O)[C@@H](O[C@H]1[C@H](O)[C@H]2O)O[C@@H]7CO)O[C@@H]6CO)O[C@@H]5CO)O[C@@H]4CO)O[C@@H]3CO [α-Cyclodextrin, α-cyclodextrin]
- Kd (μM) (Sca5X25-2; ITC, 25 °C, one-site binding model, average of three replicates): Neither Sas20d2 nor Sca5X25-2 bound
- Kd (μM) (Sas20d1): failed to bind
- Kd (Sas20d1tr): > 1000 µM
- Kd (μM) (Sas20d2; [3]): Neither Sas20d2 nor Sca5X25-2 bound; also recorded: failed to bind

Compound: OC[C@H]1O[C@@H]2O[C@H]3[C@H](O)[C@@H](O)[C@@H](O[C@H]4[C@H](O)[C@@H](O)[C@@H](O[C@H]5[C@H](O)[C@@H](O)[C@@H](O[C@H]6[C@H](O)[C@@H](O)[C@@H](O[C@H]7[C@H](O)[C@@H](O)[C@@H](O[C@H]8[C@H](O)[C@@H](O)[C@@H](O[C@H]1[C@H](O)[C@H]2O)O[C@@H]8CO)O[C@@H]7CO)O[C@@H]6CO)O[C@@H]5CO)O[C@@H]4CO)O[C@@H]3CO [β-Cyclodextrin, β-cyclodextrin]
- Kd (Sca5X25-2): 346 ± 78.8 µM
- N (binding sites) (Sca5X25-2; ITC, one-site binding model): 0.958 ± 0.01
- Kd (μM) (Sas20d1): failed to bind
- Kd (Sas20d1tr; Kd): > 1000 µM
- Kd (Sas20d1tr; [2]): 1050 ± 168 µM
- Kd (μM) (Sas20d2; [3]): weak binding
- N (binding sites) (Sas20d2): 0.98 ± 0.09

Compound: soluble starch
- Kd (Sas20d1): ≤ 20 µM
- Kd (Sas20d2; [3]): ≤ 20 µM
